Data from patent publication US7723299B2, “Methods for treating rheumatoid arthritis using a CTLA-4 fusion protein” (ForHumanTech. Co., Ltd., priority 2005, dated 2010).
No end group written: not given here.

Columns and labels:
[1] = tested on: HeLa, HepG2, HaCat and NIH3T3; experiment: Transduction efficiency in various cell lines, X-gal staining; format: cell-based; conditions: 1 hour incubation with Hph-1-β-gal
Protocol: FIG. 1C are photographs of transduction efficiency of Hph-1 in several cell lines, including HeLa, HepG2, HaCat and NIH3T3. After 1 hour incubation with Hph-1-β-gal, cells were fixed and stained with X-gal solution. The images were then captured by fluorescence microscopy.
After the Hph-1-β-gal construct was transduced into each cell line for 1 hour, the cells were washed with PBS and fixed immediately. Then, the fixed cells were incubated with X-Gal solution for 1-3 hours at 37° C. The mice tissue samples from the liver, kidney, heart, lung, spleen and brain were isolated at 12 hours after i.p. injection of Hph-1-β-gal, sectioned (in 10- and 50-μm sections), and assayed using an X-Gal staining kit (Roche) (Schwarze S. R., et al., Science 285:1569-1572 (1999)). The image was captured by fluorescence microscopy (Nikon). Transduction capacity of Hph-1-β-gal was also analyzed by western blot analysis. […] Bound antibody was detected using horseradish peroxidase-conjugated antibody to mouse IgG (1:5,000), followed by enhanced chemiluminescence (Pierce). To monitor the localization of the Hph-1-PTD-eGFP fusion protein, Hela cells were incubated with 10 μM of Hph-1-eGFP fusion protein for 30 min and the fluorescence of eGFP was analyzed by confocal microscopy (Bio Rad). […]

[2] = tested on: Jurkat (E6.1) cells; experiment: Transduction efficiency and kinetics of Hph-1-β-gal, western blot; format: cell-based
Protocol: After the Hph-1-β-gal construct was transduced into each cell line for 1 hour, the cells were washed with PBS and fixed immediately. Then, the fixed cells were incubated with X-Gal solution for 1-3 hours at 37° C. The mice tissue samples from the liver, kidney, heart, lung, spleen and brain were isolated at 12 hours after i.p. injection of Hph-1-β-gal, sectioned (in 10- and 50-μm sections), and assayed using an X-Gal staining kit (Roche) (Schwarze S. R., et al., Science 285:1569-1572 (1999)). The image was captured by fluorescence microscopy (Nikon). Transduction capacity of Hph-1-β-gal was also analyzed by western blot analysis. Equal numbers of cells were solubilized in SDS-PAGE sample buffer and the proteins were resolved on a 12% gel, and blotted onto PVDF, which was probed with monoclonal antibody (1:1,000) to β-gal (Cell Signaling). Bound antibody was detected using horseradish peroxidase-conjugated antibody to mouse IgG (1:5,000), followed by enhanced chemiluminescence (Pierce). To monitor the localization of the Hph-1-PTD-eGFP fusion protein, Hela cells were incubated with 10 μM of Hph-1-eGFP fusion protein for 30 min and the fluorescence of eGFP was analyzed by confocal microscopy (Bio Rad).
Using the purified Hph-1-β-gal fusion protein or the control β-gal protein, transduction efficiency was analyzed by western blot analysis in Jurkat (E6.1) cells. […] (FIG. 11B).

[3] = tested on: Jurkat T cells or primary human CD4^+ T cells; experiment: Induction of CD69 and CD25 on activated T cells, FACS; format: cell-based; conditions: anti-CD28 mAb and plate-bound anti-CD3 mAb stimulation
Protocol: (§1) Primary human CD4^+ T cells were purified from buffy coats from healthy donors. PBMC were isolated by density gradient centrifugation using Histopaque (Sigma). The lymphocyte layer was collected and CD4^+ T cells were isolated by MACS column using CD4 microbeads (Miltenyi Biotec) (Busch R., et al., J. Immunol. Methods 286:97-109 (2004)).
(§2) One million Jurkat (E6.1) cells or primary human CD4^+ T cells were treated with Hph-1-ctCTLA-4 for 1 hour, then washed with PBS and incubated with 0.25 μg of anti-CD28 mAb (Pharmingen) for 20 min at 4° C. The anti-CD28 mAb bound cells were further activated in 0.05 μg of anti-CD3 mAb (Pharmingen) coated plates for 20 hours. Each cell was stained with anti-CD69-PE and anti-CD25-FITC antibodies (Pharmingen) and analyzed by FACS calibur (Becton Dickinson). The supernatant in each well was analyzed for the level of secreted IL-2 by ELISA (R&D system).
(§3) To examine whether the delivered Hph-1-ctCTLA-4 can inhibit T cell activation, Jurkat T cells or primary human CD4^+ T cells were treated with Hph-1-ctCTLA-4 and stimulated with anti-CD28 mAb and plate-bound anti-CD3 mAb. The levels of activation-induced surface proteins such as CD69 and CD25 were analyzed by FACS.

[4] = tested on: Zap70, ERK and JNK; experiment: Tyrosine phosphorylation of signaling mediators after TcR stimulation; format: cell-based; conditions: T cells
[5] = tested on: Jurkat T cells and primary human CD4^+ T cells; experiment: IL-2 secretion of T cells activated with anti-CD3 and anti-CD28 mAbs, ELISA; format: cell-based; conditions: for inhibition of induction of IL-2 secretion: Jurkat or human CD4^+ T cells, fusion and control proteins
Protocol: as §1, §2, §3

[6] = tested on: OVA-challenged mice; experiment: OVA-induced allergic asthma model; conditions: for histological examination of lung tissues, infiltration of inflammatory cells / infiltration of inflammatory cells (eosinophils, macrophages, neutrophils, lymphocytes) into BAL fluid: OVA challenge; for infiltration of inflammatory cells (eosinophils, macrophages, neutrophils, lymphocytes) into BAL fluid: intra-nasal pretreatment
[7] = tested on: Jurkat T cells; experiment: Transduction efficiency and kinetics of Hph-1-ctCTLA-4, intracellular staining; format: cell-based
Protocol: Transduction efficiency of Hph-1-HA-ctCTLA-4 was analyzed by intracellular staining using HA-fluorescein mAb (Cell Signaling). After cells were permeablized by cytofix/cytoperm solution (Pharmingen) and incubated with HA-fluorescein mAb at 4° C. for 30 min. Intracellular fluorescence was determined by FACS calibur (Becton Dickinson).
By taking advantage of the capacity of Hph-1-PTD to deliver a large target protein into the cells or organs in vivo through nasal airway, a fusion protein of Hph-1-PTD and the cytoplasmic domain of CTLA-4 (Hph-1-PTD-ctCTLA-4) was constructed as described in FIG. 3A, to be used for local suppression of the immune response in an asthma model. We constructed control proteins comprised of ctCTLA-4 without Hph-1-PTD and Hph-1-ctCTLA-4YF, in which two tyrosine residues essential for its negative function were mutated into phenylalanine. The transduction efficiency of Hph-1-ctCTLA-4 was tested in Jurkat T cells, which are known not to express CTLA-4 on the surface. These cells were treated with different concentrations of Hph-1-ctCTLA-4 for different periods of time, and both the transduction efficiency and kinetics were analyzed by intracellular staining.

[8] = single pretreatment, 25 μg, OVA-challenged mice

Substance	cells positive for β-gal enzyme activity [1] [%]	reduction of transduction efficiency at 4° C. ([2]; 4° C.) [%]	concentration dependence of protein transduction ([2]; Jurkat (E6.1) cells)	induction of surface marker proteins CD69 and CD25 [3]	induction of tyrosine phosphorylation of Zap70, ERK and JNK [4]	concentration that effectively blocks T cell activation [5] [pM]	level of inhibition of IL-2 secretion compared with CsA ([5]; 10 pM of Hph-1-ctCTLA-4 versus CsA)	inhibition of induction of IL-2 secretion [5]	fold lower concentration than CsA for comparable inhibition of T cell activation ([5]; versus CsA) [fold]	histological examination of lung tissues, infiltration of inflammatory cells [6]	inflammatory index in the lung ([6]; OVA-challenged mice, pretreated)	infiltration of inflammatory cells (eosinophils, macrophages, neutrophils, lymphocytes) into BAL fluid ([6]; 25 μg)	OVA-induced airway hyper-responsiveness to methacholine ([6]; nebulized methacholine)	neutrophil and macrophage infiltration ([6]; single administration of about 1 mg/kg through the nasal route before the first OVA challenge)	generation of IFN-γ and TGF-β in BAL fluid [6, 8]	production of eotaxin and Th2 type cytokines (IL-5, IL-6, IL-13) in BAL fluid [6, 8]	time to maximal levels of intracellular protein ([7]; after incubation) [min]	transduction into the cells ([7]; intracellular staining)
Hph-1-PTD: protein transduction domain of 11 amino acids (YARVRRRGPRR) from human transcriptional factor Hph-1; tested as β-gal fusion (also: tested as β-gal fusion; listed as Homo sapiens)	~100	40	concentration-dependent manner	–	–	–	–	–	–	–	–	–	–	–	–	–	–	–
Hph-1-ctCTLA-4: fusion protein of Hph-1-PTD and the cytoplasmic domain of CTLA-4 (KMLKKRSPLTTGVYVKMPPTEPECEKQFQPYFIPIN; ctCTLA-4)	–	–	–	significantly inhibited	markedly inhibited	10	better or equivalent	concentration dependent manner at picomolar range	1000	Inflammatory cells could not infiltrate through the mucus	significantly reduced	prevent against the infiltration of these inflammatory cells into the BAL fluid to the levels observed in the PBS-challenged control group	substantially attenuated	effectively inhibited	not found to affect	significantly inhibited	60	concentration-dependent
Hph-1-ctCTLA-4YF: control protein in which two tyrosine residues essential for its negative function were mutated into phenylalanine (KMLKKRSPLTTGVFVKMPPTEPECEKQFQPFFIPIN; ctCTLA-4YF) [reference compound]	–	–	–	did not show any inhibition	–	–	–	neither ctCTLA-4 without Hph-1-PTD nor Hph-1-ctCTLA-4YF blocked IL-2 secretion	–	not observed	–	did not show these inhibitory effects	–	–	–	no inhibition	–	–
